# Reference: patent publication US12365680B2, “Polymorphs of the hydrochloride salt of linaprazan glurate” (Cinclus Pharma Holding AB (Publ), priority 2021, dated 2025)
# “Also recorded” adds a separate entry of the source. Where a name gives a salt, the structure may show the parent alone.
# Key:
# [1] = Dynamic vapour sorption (DVS) hygroscopicity; format: physicochemical
# Experimental: Analyses were performed on an SMS DVS-1 instrument. A few mg of the substance was added into an Al pan and exposed to stepwise RH changes during two identical consecutive cycles according to 0-10-20-30-40-50-60-70-80-90-80-70-60-50-40-30-20-10-0% RH using open loop mode. The experiments were performed using a gas flow rate of 200 mL/min and at 25° C. The dm/dt criteria applied was 0.001 weight-%/min during a 5-minutes window, with a maximum allowed time of 360 minutes and a minimum allowed time of 10 minutes for all steps.
# The hygroscopicity of Form 1 (obtained by crystallisation from DMF using EtOAc as the anti-solvent) and Form 2 (obtained from a slurry in MeOH) was investigated using DVS at 25° C. […] With a water uptake of 0.2% at 90% RH, Form 1 can be classified as non-hygroscopic.
# The water uptake is rapid when the relative humidity is increased, and the water loss is equally rapid when the relative humidity is decreased. The sorption behaviour is typical for a channel hydrate, where the crystal structure adapts to accommodate different amounts of water depending on the surrounding humidity. The water uptake of 4.7% at 90% RH corresponds to 1.3 water molecules per linaprazan glurate HCl unit.
# [2] = Solubility of free base and HCl salt in media simulating gastric fluid (FaSSGF, FeDSGA); format: physicochemical; details: after 1 hour
# Experimental: For solubility studies, HPLC was performed using an Agilent 1100 series Liquid Chromatography system, equipped with DAD spectrometer. Analyses were performed using a Waters X Bridge BEH C18 column (4.6×100 mm, 2.5 μm) at 30° C. Mobile phase: A=0.1% formic acid in water, B=0.1% formic acid in acetonitrile. Flow rate 0.8 mL/min. Mobile phase program:
# The solubility of the crystalline free base (Form A) and the crystalline HCl salt of linaprazan glurate (mixture of Forms 1 and 2) was studied in Fasted State Simulated Gastric Fluid (FaSSGF, Biorelevant, batch FFF-0119-B; pH 1.6) and Fed State Gastric Acid (FeDSGA, Biorelevant, batch FEDGAS-120-A; pH 5.0).
# Saturated solutions were prepared in 4 mL vials by adding a fixed weight of the crystalline base or the crystalline HCl salt to 2 mL of each of the different buffer solutions. Vials were sonicated for 10 minutes and then stirred with a magnetic stirrer on a water bath (37° C.) for 24 hours. Samples were taken after 1, 4 and 24 hours, in replicates, and analysed by HPLC-UV. Concentrations were calculated from a calibration curve, constructed using 8 calibration standards (serial dilutions of stock solutions of the free base and the HCl salt of linaprazan glurate).
# [3] = cited from earlier work
# [4] = Pharmacokinetics of linaprazan glurate after absorption; details: in vivo
# [5] = tested on: intragastric acidity; assay: Clinical Phase I study of linaprazan glurate, intragastric pH; format: in vivo; details: human, plasma, oral; after 22 hours; to maintain intra-gastric pH above 4 for 24 hours; read-out: minimal plasma concentration (Cmin) of linaprazan required
# [6] = Phase I and II studies; cited from earlier work
structure (smiles),measurement,setting,value
Cc1cccc(C)c1CNc1cc(C(=O)NCCOC(=O)CCCC(=O)O)cn2c(C)c(C)nc12 [Form 1],hygroscopicity (in words),[1]; DVS at 25° C.,non-hygroscopic; also recorded: very low hygroscopicity
Cc1cccc(C)c1CNc1cc(C(=O)NCCOC(=O)CCCC(=O)O)cn2c(C)c(C)nc12 [Form 2],hygroscopicity (in words),[1]; DVS at 25° C.,significant uptake of water at elevated humidities
same,water uptake,"[1]; DVS at 25° C., 90% RH",4.7%
same,water molecules per linaprazan glurate HCl unit,[1]; corresponds to water uptake at 90% RH,1.3
Cc1cccc(C)c1CNc1cc(C(=O)NCCOC(=O)CCCC(=O)O)cn2c(C)c(C)nc12 [HCl salt],solubility of the HCl salt relative to the free base,"[2]; FeDSGA pH 5.0, 37° C.",more than 6.5 times
Cc1cccc(C)c1CNc1cc(C(=O)NCCOC(=O)CCCC(=O)O)cn2c(C)c(C)nc12 [free base],solubility at pH 1,[3]; pH 1,only slightly soluble
same,solubility in water at pH 6.8,[3]; pH 6.8,practically insoluble
same,solubility of the free base relative to the HCl salt,"[2]; FaSSGF pH 1.6, 37° C.",about 1.4 times
"Cc1cccc(C)c1CNc1cc(C(=O)NCCOC(=O)CCCC(=O)O)cn2c(C)c(C)nc12 [linaprazan glurate, 5-{2-[({8-[(2,6-dimethylbenzyl)amino]-2,3-dimethylimidazo[1,2-a]pyridine-6-yl}carbonyl)-amino]ethoxy}-5-oxopentanoic acid]",half-life in the body compared to linaprazan,[4],longer half-life
same,metabolism following absorption into the blood stream,[4],quickly metabolized into linaprazan
same,plasma concentration,[4],only very low and difficult to determine
Cc1cccc(C)c1CNc1cc(C(=O)NCCO)cn2c(C)c(C)nc12 [linaprazan],concentration at 22 h,[5],≥ 240 nM
same,elimination,[6],quickly eliminated from the body
same,onset of action and effect,[6],fast onset of action and full effect at first dose
same,tolerability,[6],well tolerated
